Patent US20090186868A1, “Taxane Compound Having Azetidine Ring Structure” (Daiichi Sankyo Company Limited, priority 2005, published 2009)
≈ marks a conversion by molar mass, not a printed value. Where two headings read alike, the source gives them in different places.

Columns and labels:
[1] = test system: M5076 (histiocytoma expressing P-gp); test: Antitumor effect in mice subcutaneously transplanted with M5076; format: in vivo, Mice (C57BL/6); details: for Therapeutic index: MTD/MED; for Effective dose range: range from MED to MTD, antitumor effect of 58% or more considered effective
Source text: (§1) Mice (C57BL/6, Charles River Japan) were subcutaneously transplanted with B16 melanoma BL6 (Cancer Res., Poste, G., Fidler, I. J. et al., 1980, 40:1636; Bioorg. Med. Chem. Lett., Takeda, Y. et al., 2003, 13:185-190), or M5076 (obtained from Japanese Foundation for Cancer Research), which is a histiocytoma expressing P-gp. Four days after the transplantation in the case of B16 melanoma BL6, or 8 to 10 days after the transplantation in the case of M5076, each test compound suspended in a 0.5% aqueous solution of carboxymethylcellulose sodium, or dissolved in EtOH:Tween 80:5% glucose=5:5:90 (v/v %) was orally (po) or intravenously (iv) administered to the mice. Ten days after the administration in the case of B16 melanoma BL6, or 8 to 10 days after the administration in the case of M5076, the mice were dissected, and tumor weights were measured. The antitumor effect was calculated in accordance with the following equation.
(§2) [1−(Average tumor weight of compound administration group/average tumor weight of solvent administration group)]×100
(§3) An antitumor effect of 58% or more was considered effective (Int. J. Cancer, 1989, 43:637-44), and the maximum tolerance dose (MTD, maximum dose not causing death, mg/kg) and minimum effective dose (MED, mg/kg) showing effectiveness were obtained, respectively. The therapeutic index was calculated in accordance with the equation: MTD/MED.
(§4) ND means that the test was not performed. The effective dose range means the range of from MED to MTD.

[2] = test system: HCT116 (human colon cancer cell line); test: Anti-cell activity (MTT) against human tumor cell line HCT116; format: cell-based; details: HCT-116, 72 h, HCT116, cultured three days, read-out: HCT116 (GI50 value, ng/mL)
Experimental: (§5) Three types of human tumor cell lines (all of the cells were obtained from American Type Culture Collection) were seeded on 96-well microplates as follows.
(§6) NCI-H460 (human lung cancer cell line): 5.0×10^2 cells/190 μL/well HCT-15 (P glycoprotein (P-gp) expressing human colon cancer cell line, J. Natl. Cancer Inst., 2001, 93:1234-1245): 1.0×10^3 cells/190 μL/well HCT116 (human colon cancer cell line): 1.0×10^3 cells/190 μL/well On the next day, each test compound was dissolved in 100% dimethyl sulfoxide (DMSO) at a concentration of 10 mg/mL. This solution was diluted with 0.01% Cremophor EL-PBS(−) (Cremophor EL: Sigma Chemical Co., St. Louis, Mo., USA, PBS: Invitrogen Corp., Carlsbad, Calif., USA), and 10 μL of the diluted solution was added to each well (final concentration: 100 to 0.000381 ng/mL). The cells were cultured for three days, and then […] of a 5 mg/mL solution of 3-(4,5-dimethylthiazol-2-yl)-2,5-diphenyl-2H-tetrazolium bromide (MTT, Sigma Chemical Co.) was added to each well. The cells were further cultured for 4 hours, and then the medium was removed by centrifugation. By adding 150 μL of DMSO to each well, the produced formazan product was dissolved. The absorbance of the solution was measured at 540 nm. The drug concentration suppressing cell proliferation of the drug addition group to 50% of the cell proliferation of the drug free group (GI50 value, ng/mL) was calculated, and used as an index of anti-cell activity.

[3] = Solubility in first and second solution for disintegration test (Japanese Pharmacopoeia); format: physicochemical; details: for solubility: thermodynamic from solid
Experimental: Solubility of each compound was determined in the first solution for disintegration test according to Japanese Pharmacopoeia (henceforth referred to as the first solution, solution obtained by adding 7 mL of hydrochloric acid and water to 2.00 g of sodium chloride to dissolve sodium chloride and fill up the solution to 1000 mL, pH 1.2) and the second solution for disintegration test according to Japanese Pharmacopoeia (henceforth referred to as the second solution, solution obtained by adding 118 mL of 0.2 mol/L solution of sodium hydroxide to 6.80 g of potassium dihydrogenphosphate, adding water to the mixture to dissolve potassium dihydrogenphosphate and filling up the solution to 1000 mL, pH 6.8).
Each test compound was dissolved in 100% dimethyl sulfoxide (DMSO) at a concentration of 10 mM, and 50 μL of the solution was lyophilized. The lyophilized test compound was added with 250 μL of the first solution or second solution, and the mixture was stored at room temperature for 12 hours or longer under light shielding, and filtered (0.7 μm). The filtrate was taken in a volume of 90 μL, and added with 50% DMSO (90 μL) to obtain a two-fold diluted solubility sample. The two-fold dilution solubility sample was taken in a volume of 20 μL, and added with 50% DMSO (180 μL) to obtain a […] diluted solubility sample. Solubility of each test sample was determined by quantifying the test compound in the resulting diluted solubility test samples using high-performance liquid chromatography.

[4] = test system: HCT-15 (P glycoprotein (P-gp) expressing human colon cancer cell line); test: Anti-cell activity (MTT) against human tumor cell line HCT-15; format: cell-based; details: 72 h, HCT-15 (P-gp expressing), cultured three days, read-out: HCT-15 (GI50 value, ng/mL)
Experimental: as §5, §6

[5] = test system: NCI-H460 (human lung cancer cell line); test: Anti-cell activity (MTT) against human tumor cell line NCI-H460; format: cell-based; details: 72 h, NCI-H460, cultured three days, read-out: NCI-H460 (GI50 value, ng/mL)
Experimental: as §5, §6

B16 melanoma BL6 = test: Antitumor effect in mice subcutaneously transplanted with B16 melanoma BL6; format: in vivo, Mice (C57BL/6); details: for Therapeutic index: MTD/MED; for Effective dose range: range from MED to MTD, antitumor effect of 58% or more considered effective
Source text: as §1, §2, §3, §4

[6] = aqueous buffer, second solution for disintegration test, pH 6.8, room temperature, 12 hours or longer, read-out: Solubility (μg/mL) pH 6.8
[7] = simulated gastric fluid, first solution for disintegration test, pH 1.2, room temperature, 12 hours or longer, read-out: Solubility (μg/mL) pH 1.2
[8] = pH 1.2, simulated gastric fluid
[9] = first solution for disintegration test, pH 1.2, room temperature, 12 hours or longer
[10] = second solution for disintegration test, pH 6.8, room temperature, 12 hours or longer

SMILES	Therapeutic index ([1]; M5076, po)	Effective dose range ([1]; M5076, po) [mg/kg]	GI50 [2] [ng/mL]	solubility [3, 6] [µg/mL]	solubility [3, 7] [µg/mL]	GI50 [4] [ng/mL]	GI50 [5] [ng/mL]	Therapeutic index (B16 melanoma BL6; B16 Melanoma BL6, po)	solubility [3, 8] [µg/mL]	solubility ([3]; pH 6.8, aqueous buffer) [µg/mL]	Therapeutic index ([1]; M5076, iv)	Effective dose range ([1]; M5076, iv) [mg/kg]	Solubility (μg/mL) pH 1.2 [3, 9] [μg/mL]	Solubility (μg/mL) pH 6.8 [3, 10] [μg/mL]	Therapeutic index (B16 melanoma BL6; B16 Melanoma BL6, iv)	Effective dose range (B16 melanoma BL6; B16 Melanoma BL6, iv) [mg/kg]	Effective dose range (B16 melanoma BL6; B16 Melanoma BL6, po) [mg/kg]
CC(=O)O[C@@]12CO[C@@H]1CC[C@@]1(C)[C@@H]3O[C@H](CN4CC(O)C4)O[C@@H]3C3=C(C)[C@@H](OC(=O)[C@H](O)[C@@H](NC(=O)OC(C)(C)C)c4ccccn4)C[C@@](O)([C@@H](OC(=O)c4ccccc4)[C@@H]12)C3(C)C [Example 5, (1S,2S,3R,4S,5R,8R,9S,10R,13S)-4-(Acetoxy)-2-(benzoyloxy)-5,20-epoxy-1-hydroxy-9,10-[(1S)-2-(3-hydroxyazetidino)ethylidenedioxy]tax-11-en-13-yl (2R,3S)-3-(tert-butoxycarbonylamino)-2-hydroxy-3-(2-pyridyl)propionate]	1.0	30.0	0.229 (≈ 0.000257 µM)	140 (≈ 157 µM)	1000 (≈ 1120 µM)	8.08 (≈ 0.00906 µM)	0.162 (≈ 0.000182 µM)	6.0									
CC(=O)O[C@@]12CO[C@@H]1CC[C@@]1(C)[C@@H]3O[C@H](CN4CCC4)O[C@@H]3C3=C(C)[C@@H](OC(=O)[C@H](O)[C@@H](NC(=O)OC(C)(C)C)c4ccccn4)C[C@@](O)([C@@H](OC(=O)c4ccccc4)[C@@H]12)C3(C)C [Example 1, (1S,2S,3R,4S,5R,8R,9S,10R,13S)-4-(Acetoxy)-9,10-[(1S)-2-(azetidino)ethylidenedioxy]-2-(benzoyloxy)-5,20-epoxy-1-hydroxytax-11-en-13-yl (2R,3S)-3-(tert-butoxycarbonylamino)-2-hydroxy-3-(2-pyridyl)propionate]			0.244 (≈ 0.000279 µM)	170 (≈ 194 µM)	1200 (≈ 1370 µM)	1.14 (≈ 0.0013 µM)	0.19 (≈ 0.000217 µM)	2.9									
CC(=O)O[C@@]12CO[C@@H]1CC[C@@]1(C)[C@@H]3O[C@H](CN4CC(O)C4)O[C@@H]3C3=C(C)[C@@H](OC(=O)[C@H](O)[C@@H](NC(=O)OC(C)(C)C)c4ncccc4F)C[C@@](O)([C@@H](OC(=O)c4ccccc4)[C@@H]12)C3(C)C [Example 6, (1S,2S,3R,4S,5R,8R,9S,10R,13S)-4-(Acetoxy)-2-(benzoyloxy)-5,20-epoxy-1-hydroxy-9,10-[(1S)-2-(3-hydroxyazetidino)ethylidenedioxy]tax-11-en-13-yl (2R,3S)-3-(tert-butoxycarbonylamino)-3-(3-fluoro-2-pyridyl)-2-hydroxypropionate]	2.0	18.6 to 38.0	0.183 (≈ 0.000201 µM)			7.94 (≈ 0.00873 µM)	0.172 (≈ 0.000189 µM)	4.2	690 (≈ 758 µM)	87 (≈ 95.6 µM)							
CC(=O)O[C@H]1C(=O)[C@@]2(C)[C@H]([C@H](OC(=O)c3ccccc3)[C@]3(O)C[C@H](OC(=O)[C@H](O)[C@@H](NC(=O)c4ccccc4)c4ccccc4)C(C)=C1C3(C)C)[C@]1(OC(C)=O)CO[C@@H]1C[C@@H]2O [Paclitaxel, reference compound]			1.71 (≈ 0.002 µM)			> 100	1.87 (≈ 0.00219 µM)		< 4	< 4							
CC(=O)O[C@@]12CO[C@@H]1CC[C@@]1(C)[C@@H]3O[C@H](CN4CC(C)(O)C4)O[C@@H]3C3=C(C)[C@@H](OC(=O)[C@H](O)[C@@H](NC(=O)OC(C)(C)C)c4ccccn4)C[C@@](O)([C@@H](OC(=O)c4ccccc4)[C@@H]12)C3(C)C [Example 11, (1S,2S,3R,4S,5R,8R,9S,10R,13S)-4-(Acetoxy)-2-(benzoyloxy)-5,20-epoxy-1-hydroxy-9,10-[(1S)-2-(3-hydroxy-3-methylazetidino)ethylidenedioxy]tax-11-en-13-yl (2R,3S)-3-(tert-butoxycarbonylamino)-2-hydroxy-3-(2-pyridyl)propionate]			0.173 (≈ 0.000191 µM)	170 (≈ 188 µM)	1300 (≈ 1430 µM)	4.21 (≈ 0.00465 µM)	0.109 (≈ 0.00012 µM)	5.9									
CC(=O)O[C@@]12CO[C@@H]1CC[C@@]1(C)[C@@H]3O[C@H](CN4CCC4)O[C@@H]3C3=C(C)[C@@H](OC(=O)[C@H](O)[C@@H](NC(=O)OC(C)(C)C)C(F)F)C[C@@](O)([C@@H](OC(=O)c4ccccc4)[C@@H]12)C3(C)C [Example 31, (1S,2S,3R,4S,5R,8R,9S,10R,13S)-4-(Acetoxy)-9,10-[(1S)-2-(azetidino)ethylidenedioxy]-2-(benzoyloxy)-5,20-epoxy-1-hydroxytax-1′-en-13-yl (2R,3R)-3-(tert-butoxycarbonylamino)-4,4-difluoro-2-hydroxybutyrate]								2.0			1.0	10.0	1000	160	2.9	3.43 to 10.0	8.82 to 18.0
CC(=O)O[C@@]12CO[C@@H]1CC[C@@]1(C)[C@@H]3O[C@H](CN4CCC4)O[C@@H]3C3=C(C)[C@@H](OC(=O)[C@H](O)[C@@H](NC(=O)OC(C)(C)C)c4ncco4)C[C@@](O)([C@@H](OC(=O)c4ccccc4)[C@@H]12)C3(C)C [Example 41, (1S,2S,3R,4S,5R,8R,9S,10R,13S)-4-(Acetoxy)-9,10-[(1S)-2-(azetidino)ethylidenedioxy]-2-(benzoyloxy)-5,20-epoxy-1-hydroxytax-11-en-13-yl (2R,3R)-3-(tert-butoxycarbonylamino)-2-hydroxy-3-(2-oxazolyl)propionate]								2.9			1.4	17.5 to 25.0	910	370	4.2	5.29 to 22.0	8.58 to 25.0
